Literature values as cited in article PMC9686516, “Pharmacokinetic Characteristics of Nebulized Colistimethate Sodium Using Two Different Types of Nebulizers in Critically Ill Patients with Ventilator-Associated Respiratory Infections” (Antibiotics, 2022).
Where a SMILES comes first, the peptide text is derived from it. Bridges are numbered along the chain shown (N, C = ends). [ ]: non-standard residue; d: D form. The star is where a group is joined. X1 = CC[C@H](C)CCCCC(=O)*; Dab = NCC[C@H](N)C(=O)O

Experiments:
[1] = cited from earlier work
Description: However, the ELF exposure was similar, despite the higher dose, probably due to a higher clearance from the lung compartment in our study, as evidenced by the ... || Contrarily, our results were only marginally compatible with the results of Boisson et al. and Gkoufa et al.. In the former study, the range of colistin concentration in the ELF following a 2 mIU inhalation spanned from 9.53 to 1137 mg/L [14], while it was between 0.8 mg/L and 57.9 mg/L in the present study. In the latter study, the exact values were not reported, however in the figured data it was shown that after an inhalation of 3 to 5 mIU of CMS, formed colistin concentrations were in the range of 10^2 to 10^3 mg/L [16]. Again, it is not known whether these differences we ...

[2] = piglets, cited from earlier work
Description: Nevertheless, in a piglet model of ventilated P. aeruginosa inoculation pneumonia, Lu et al. observed a serum maximum colistin concentration of 1.6 ± 1.4 mg/L after VMN aerosolization of 0.1 mIU/kg of CMS [28]. […] Post-nebulization colistin tissue levels have never been measured in humans; if the results abov ...

[3] = cited from earlier work; remark: listed apart in the source
Description: The median (IQR) values of colistin concentration in plasma (Ccolistin, plasma) using VMN nebulization were 0.6 (0.4–0.7) mg/L, 2.3 (1.4–2.7) mg/L, 1.7 (1.1–2.0) mg/L, 0.8 (0.7–0.9) mg/L, 0.4 (0.3–0.6) mg/L, and 0.2 (0.2–0.4) mg/L, at 0.5, 1, 2, 4, 6 and 8 h post-nebulization. The corresponding values with JN were 0.1 (0.1–0.1) mg/L, 0.1 (0.1–0.2) mg/L, 0.3 (0.3–0.4) mg/L, 0.2 (0.2–0.2) mg/L, 0.1 (0.1–0.1) mg/L, and 0.1 (0.1–0.1) mg/L (Figure 3). Median Ccolistin, plasma was greater than 2 mg/L at 1 h post-nebulization, a value which is the average concentration, in steady-state conditions, th ... || Contrarily, our results were only marginally compatible with the results of Boisson et al. and Gkoufa et al.. In the former study, the range of colistin concentration in the ELF following a 2 mIU inhalation spanned from 9.53 to 1137 mg/L [14], while it was between 0.8 mg/L and 57.9 mg/L in the present study. In the latter study, the exact values were not reported, however in the figured data it was shown that after an inhalation of 3 to 5 mIU of CMS, formed colistin concentrations were in the range of 10^2 to 10^3 mg/L [16]. Again, it is not known whether these differences we ...

Question: Which results are given for `CC[C@H](C)CCCCC(=O)N[C@@H](CCN)C(=O)N[C@H](C(=O)N[C@@H](CCN)C(=O)N[C@H]1CCNC(=O)[C@H]([C@@H](C)O)NC(=O)[C@H](CCN)NC(=O)[C@H](CCN)NC(=O)[C@H](CC(C)C)NC(=O)[C@@H](CC(C)C)NC(=O)[C@H](CCN)NC1=O)[C@@H](C)O` [colistin] (X1-[Dab]T[Dab][Dab][Dab][dL]L[Dab][Dab]T; lactam 4-C)?
Answer: median plasma Cmax ([1]; 1 mIU of CMS via VMN, ref 13 (Athanassa et al.)): 1600 ng/mL; plasma concentrations ([1]; after inhaled CMS, generally): below 1 mg/L; median peak lung tissue concentration ([2]; 1 h after the third inhaled dose, upon sacrifice): 2.8 µg/g; serum maximum colistin concentration ([2]; VMN aerosolization of 0.1 mIU/kg of CMS, ref 28 (Lu et al.)): 1.6 ± 1.4 mg/L; average plasma concentration, in steady-state conditions, that predicts acute renal failure [3]: 2 mg/L; formed colistin plasma values linked to the occurrence of nephrotoxicity [3]: 2 to 2.5 mg/L
